Series [1] deals with T1, PAR2 (Mus musculus, UniProt P55086).
T1 construct: from tissue; host or cells: living C57BL6 mice (hind paw / nociceptors)
T1 sequence (P55086 26-399): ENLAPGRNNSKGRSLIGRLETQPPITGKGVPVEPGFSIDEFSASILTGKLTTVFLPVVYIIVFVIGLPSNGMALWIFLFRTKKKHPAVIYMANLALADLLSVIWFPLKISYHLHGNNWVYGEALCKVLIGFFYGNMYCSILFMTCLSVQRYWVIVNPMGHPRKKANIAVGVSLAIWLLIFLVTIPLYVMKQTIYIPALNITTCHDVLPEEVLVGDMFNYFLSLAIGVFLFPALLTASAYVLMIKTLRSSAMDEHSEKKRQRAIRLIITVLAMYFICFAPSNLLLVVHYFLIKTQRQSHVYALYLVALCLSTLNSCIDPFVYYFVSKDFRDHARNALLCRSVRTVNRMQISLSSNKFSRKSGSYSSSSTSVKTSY
Description: Local intraplantar coinjection of C781 with PAR2 agonist 2AT: von Frey, Mouse Grimace Scale, hyperalgesic priming (PGE2). It is filed as in vivo, C57BL6 mice. Conditions: 2AT 20.9 ng intraplantar. The protocol: Experimenters were blinded to treatment groups in all experiments. Animals were habituated to suspended acrylic chambers with each individual chamber measuring 11.4 × 7.6 × 7.6 cm and a wire mesh bottom (1 cm^2). Mechanical hypersensitivity was assessed using the manual von Frey hair test after spontaneous pain assessment using the Mouse Grimace Scale (MGS). This was done to assure that grimacing responses were not a result of mechanical stimulation.
MGS were determined using the MGS test as described by Langford and colleagues.[37] After habituation, the experimenter observed the mice and assigned intensity ratings (0 = not present, 1 = moderately present, 2 = severe) to the facial action units relative to baseline. The 5 action units identified are 1) orbital tightening, 2) nose bulge, 3) cheek bulge, 4) ear position, and 5) whisker change. The scores for all 5 action units are averaged to obtain the MGS score for each time point.
Hind paw withdrawal thresholds were calculated via the Dixon up-down method after applying calibrated von Frey filaments from Stoelting, Co. (cat# 58011) to the volar surface of the left hind paw.[12] […] The maximum filament weight used was 2 g.
Hyperalgesic priming was determined after allowing animals to return to baseline levels and injecting the previously injected paw with 100 ng of PGE2 (Cayman Chemical, Ann Arbor, MI). […]

A short description of series [2]: in vitro. The conditions noted are these: human; for fraction unbound at 4 h, 5 µM: plasma. It is filed as in vitro ADME. As for the experimental part: (§1) The objective of this study was to evaluate protein binding test compounds in human and mice plasma. This was accomplished by spiking the test compounds at a concentration of 5 µM into human and mice plasma and dialyzing against buffer until equilibrium is achieved (4 hours). Analyte area ratios of the test compounds in plasma and buffer were determined to calculate unbound and bound percentages of compound to the plasma proteins.
(§2) Compound concentration : 5 µM
(§3) Rapid equilibrium dialysis was performed with a rapid equilibrium dialysis (RED) device containing dialysis membrane with a molecular weight cut-off of 8,000 Daltons. Each dialysis insert contains two chambers. The red chamber is for plasma while the white chamber is for buffer.
(§4) After sealing the RED device with an adhesive film, dialysis was performed in incubator at 37 °C with shaking at 100 RPM for 4 hours.
(§5) Two aliquots were frozen immediately (0 minute sample). The other two aliquots were incubated at 37 °C for 4 hours along with the RED device.
(§6) Following dialysis, an aliquot of 50 µL was removed from each well (both plasma and buffer side) and diluted with equal volume of opposite matrix (dialyzed with the other matrix) to nullify the matrix effect. Similarly, 50 µL of buffer was added to recovery and stability samples. An aliquot of 100 µL was submitted for LC-MS/MS analysis.
(§7) The peak area ratios (analyte versus internal standard) obtained was used to determine the fraction of compound bound to plasma proteins. The following equation was used to determine the extent of plasma protein binding:
(§8) Percent free drug = 100 x (peak area ratio in dialysate buffer)
(§9) Percent bound drug = 100 - % free drug
(§10) Recovery (%): 100 x (response plasma + response buffer) after dialysis / (response plasma) incubated at 37 °C in tubes along with RED device.
(§11) Stability (%):100 x (response plasma) incubated at 37 °C in tubes along with RED device / (response plasma) samples frozen at 0 min

The nature of series [3]: in vitro. It is filed as in vitro ADME, mice. Conditions: mouse; for fraction unbound at 4 h, 5 µM: plasma. The protocol: as §1, §2, §3, §4, §5, §6, §7, §8, §9, §10, §11

“2-aminothiazo-4-yl-LIGRL-NH2 [Compound 2AT]”: in series [1], the “Nociceptive behaviors evoked by agonist (mechanical hypersensitivity, facial grimacing)” value was “caused both mechanical hypersensitivity and facial grimacing”. Moreover, the “Hyperalgesic priming by agonist (response to PGE2)” value in series [1] (then PGE2 100 ng intraplantar) was “primed and exhibited mechanical allodynia and facial grimacing in response to PGE2”.
As a reminder, the fraction unbound is free concentration divided by total concentration. Read a low fraction unbound as little free substance. Turning to `CC(=O)CC(c1ccccc1)c1c(O)c2ccccc2oc1=O` (stereo not drawn) [Warfarin], the figures for the recovery at 4 h, 5 µM in series [2] (pH 7.4) and in series [3] (pH 7.4) were 97% and 94%, respectively. Besides, the fraction unbound at 4 h, 5 µM in series [2] (pH 7.4, % Bound Mean ± SD) is 0.011; in series [2] (pH 7.4, % Bound R1) it was 0.012; in series [2] (pH 7.4, % Bound R2) it was 0.01; in series [2] (pH 7.4, % Bound R3), 0.011; in series [3] (pH 7.4, % Bound Mean ± SD) it was 0.061; in series [3] (pH 7.4, % Bound R1), 0.058. Besides, the fraction unbound at 4 h, 5 µM in series [3] (pH 7.4, % Bound R2) was 0.057; in series [3] (pH 7.4, % Bound R3), 0.07.

For the origin of these results see paper PMC10079573 (The journal of pain, 2022).
